According to ChEMBL document CHEMBL1132291, “Synthesis and serotonergic activity of substituted 2, N-benzylcarboxamido-5-(2-ethyl-1-dioxoimidazolidinyl)-N, N-dimethyltryptamine derivatives: novel antagonists for the vascular 5-HT(1B)-like receptor” (J Med Chem, 1999):

Key:
[1] = test system: 5-hydroxytryptamine receptor 1B (Oryctolagus cuniculus); experiment: Binding affinity against vascular 5-hydroxytryptamine 1B receptor, measured using ring preparations of rabbit saphenous vein (RbSV)
[2] = test system: Adrenergic receptor alpha-1 (Oryctolagus cuniculus); experiment: Alpha-1 adrenergic receptor affinity using ring preparations of rabbit thoracic aorta (RbTA).
[3] = test system: 5-hydroxytryptamine receptor 2A (Oryctolagus cuniculus); experiment: Binding affinity for 5-hydroxytryptamine 2A receptor of rabbit aorta ring preparations
[4] = target: T1, 5-hydroxytryptamine receptor 1A (Rattus norvegicus, UniProt P19327); experiment: Binding affinity against 5-hydroxytryptamine 1A receptor in rat cortex homogenates.; format: tissue-based
T1 sequence (P19327 whole entry): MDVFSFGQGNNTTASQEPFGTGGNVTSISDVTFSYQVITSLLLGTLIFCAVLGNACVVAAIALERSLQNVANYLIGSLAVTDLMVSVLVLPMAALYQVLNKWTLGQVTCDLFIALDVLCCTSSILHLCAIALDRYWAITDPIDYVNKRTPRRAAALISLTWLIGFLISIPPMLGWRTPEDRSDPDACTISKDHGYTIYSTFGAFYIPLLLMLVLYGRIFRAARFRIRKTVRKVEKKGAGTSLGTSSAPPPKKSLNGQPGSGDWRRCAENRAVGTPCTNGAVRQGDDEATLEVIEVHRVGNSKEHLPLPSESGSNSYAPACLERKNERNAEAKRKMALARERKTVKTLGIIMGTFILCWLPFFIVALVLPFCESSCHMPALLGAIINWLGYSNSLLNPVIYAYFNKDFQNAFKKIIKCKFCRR

[5] = target: T2, 5-hydroxytryptamine receptor 2C (Rattus norvegicus, UniProt P08909); experiment: Binding affinity against 5-hydroxytryptamine 2C receptor in rat cortex homogenates.; format: tissue-based
T2 sequence (P08909 whole entry): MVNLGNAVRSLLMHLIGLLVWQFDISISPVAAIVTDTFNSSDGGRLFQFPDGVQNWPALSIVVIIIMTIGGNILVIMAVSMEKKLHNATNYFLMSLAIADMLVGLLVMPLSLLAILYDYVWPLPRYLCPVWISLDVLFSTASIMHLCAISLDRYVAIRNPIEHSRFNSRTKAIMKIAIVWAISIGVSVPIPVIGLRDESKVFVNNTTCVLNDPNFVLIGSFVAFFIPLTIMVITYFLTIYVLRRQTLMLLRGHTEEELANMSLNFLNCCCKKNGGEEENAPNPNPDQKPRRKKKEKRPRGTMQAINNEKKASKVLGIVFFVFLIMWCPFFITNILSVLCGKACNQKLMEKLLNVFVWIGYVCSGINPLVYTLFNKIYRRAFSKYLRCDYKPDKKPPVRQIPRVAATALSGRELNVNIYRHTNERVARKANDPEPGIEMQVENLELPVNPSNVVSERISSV

[6] = test system: 5-hydroxytryptamine receptor 1B (Oryctolagus cuniculus); experiment: The vascular 5-hydroxytryptamine 1B receptor affinity was assessed using ring preparations of rabbit saphenous vein(RbSV).
[7] = test system: 5-hydroxytryptamine receptor 1B (Oryctolagus cuniculus); experiment: The vascular 5-hydroxytryptamine 1B receptor affinity was assessed using ring preparations of rabbit saphenous vein (RbSV).

Row | Compound | pKB [1] | pKB [2] | further results
1 | CN(C)CCc1c(C(=O)NCc2ccccc2N)[nH]c2ccc(CCN3C(=O)NC(C)(C)C3=O)cc12 | 6.72 | 4.79 | –
2 | CN(C)CCc1c(C(=O)N(C)C)[nH]c2ccc(CCN3C(=O)CNC3=O)cc12 | < 5 | – | pKB [3]: < 5
3 | CN(C)CCc1c(C(=O)NN)[nH]c2ccc(CCN3C(=O)NC(C)(C)C3=O)cc12 | 5.48 | < 4.5 | –
4 | CN(C)CCc1c(C(=O)NCc2ccccc2)[nH]c2ccc(CCN3C(=O)CNC3=O)cc12 | 7.36 | 5.77 | Ki [4]: 67.6 µM; Ki [5]: 1.91 µM; pKB [3]: 6.09
5 | CN(C)CCc1c(C(=O)NCc2cccc3ccccc23)[nH]c2ccc(CCN3C(=O)NC(C)(C)C3=O)cc12 | 5.5 | – | –
6 | COc1ccc(CNC(=O)c2[nH]c3ccc(CCN4C(=O)NC(C)(C)C4=O)cc3c2CCN(C)C)cc1 | – | 4.73 | pKB [6]: 6.54
7 | CN(C)CCc1c(C(=O)N(C)Cc2ccccc2)[nH]c2ccc(CCN3C(=O)NC(C)(C)C3=O)cc12 | 5.8 | 5.8 | pKB [3]: 6.03
8 | COc1cccc(CNC(=O)c2[nH]c3ccc(CCN4C(=O)NC(C)(C)C4=O)cc3c2CCN(C)C)c1 | 6.47 | 5.17 | –
9 | CN(C)CCc1c(C(=O)NCc2ccc(Cl)cc2)[nH]c2ccc(CCN3C(=O)NC(C)(C)C3=O)cc12 | 7.59 | 5.86 | –
10 | CN(C)CCc1c(C(=O)NCc2ccccc2)[nH]c2ccc(CCN3C(=O)NC(C)(c4ccccc4)C3=O)cc12 (stereo unspecified) | 7.15 | 5.27 | –
11 | CN(C)CCc1c(C(=O)NCc2ccccc2N)[nH]c2ccc(CCN3C(=O)CNC3=O)cc12 | 6.67 | 5.73 | –
12 | CN(C)CCc1c(C(=O)NCc2ccc(C(F)(F)F)cc2)[nH]c2ccc(CCN3C(=O)NC(C)(C)C3=O)cc12 | 6.2 | < 5 | –
13 | CN(C)CCc1c(C(=O)NCc2cccc(NS(C)(=O)=O)c2)[nH]c2ccc(CCN3C(=O)NC(C)(C)C3=O)cc12 | 5.67 | 4.51 | –
14 | CN(C)CCc1c(C(=O)NCc2ccc(Cl)c(Cl)c2)[nH]c2ccc(CCN3C(=O)NC(C)(C)C3=O)cc12 | 6.5 | 5 | –
15 | CN(C)CCc1c(C(=O)NCc2ccccc2N)[nH]c2ccc(CCN3C(=O)NC(C)(c4ccccc4)C3=O)cc12 (stereo unspecified) | 6.65 | 5.21 | –
16 | CC(=O)Nc1ccccc1CNC(=O)c1[nH]c2ccc(CCN3C(=O)NC(C)(C)C3=O)cc2c1CCN(C)C | – | < 5 | pKB [7]: 6.04
17 | CN(C)CCc1c(C(=O)NCC(N)=O)[nH]c2ccc(CCN3C(=O)NC(C)(C)C3=O)cc12 | < 5 | – | –
18 | CONC(=O)c1[nH]c2ccc(CCN3C(=O)NC(C)(C)C3=O)cc2c1CCN(C)C | 5.4 | < 4.5 | –
19 | CN(C)CCc1c(C(=O)NCc2ccccc2)[nH]c2ccc(CCN3C(=O)N(C)C(C)(c4ccccc4)C3=O)cc12 (stereo unspecified) | 7.19 | 5.5 | –
20 | CC(NC(=O)c1[nH]c2ccc(CCN3C(=O)NC(C)(C)C3=O)cc2c1CCN(C)C)c1ccccc1 (stereo unspecified) | 5.5 | 4.65 | pKB [3]: 5.59
21 | CC(=O)Nc1cccc(CNC(=O)c2[nH]c3ccc(CCN4C(=O)NC(C)(C)C4=O)cc3c2CCN(C)C)c1 | 5.68 | 4.5 | –
22 | CCOC(=O)c1[nH]c2ccc(CCN3C(=O)CNC3=O)cc2c1CCN(C)C | 7.42 | 5.43 | pKB [3]: < 5
23 | Cc1ccc(CNC(=O)c2[nH]c3ccc(CCN4C(=O)NC(C)(C)C4=O)cc3c2CCN(C)C)cc1 | 7 | 6 | –
24 | CON(C)C(=O)c1[nH]c2ccc(CCN3C(=O)CNC3=O)cc2c1CCN(C)C | 5.76 | – | pKB [3]: 5.3

Row | Compound | pKB [1] | pKB [2] | further results
25 | CN(C)CCc1c(C(=O)NCc2ccc(Cl)cc2)[nH]c2ccc(CCN3C(=O)CNC3=O)cc12 | 7.74 | 6.47 | pKB [3]: 6.31
26 | CN(C)CCc1c(C(=O)NCc2ccccc2)[nH]c2ccc(CCN3C(=O)C4CCCN4C3=O)cc12 (stereo unspecified) | 6.66 | 5.31 | –
27 | CN(C)CCc1c(C(=O)NCc2ccc(F)cc2)[nH]c2ccc(CCN3C(=O)NC(C)(C)C3=O)cc12 | 7.3 | 5.46 | –
28 | CN(C)CCc1c(C(=O)NCc2ccccc2)[nH]c2ccc(CCN3C(=O)NC4(CCCC4)C3=O)cc12 | 7.2 | 5.48 | –
29 | CN(C)CCc1c(C(=O)NCc2cccc(Cl)c2)[nH]c2ccc(CCN3C(=O)NC(C)(C)C3=O)cc12 | 6.45 | – | –
30 | CCCCNC(=O)c1[nH]c2ccc(CCN3C(=O)CNC3=O)cc2c1CCN(C)C | 5.94 | – | pKB [3]: 5.2
31 | CN(C)CCc1c(C(=O)NCc2ccc(S(C)(=O)=O)cc2)[nH]c2ccc(CCN3C(=O)NC(C)(C)C3=O)cc12 | 5.91 | 4.52 | –
32 | CN(C)CCc1c(C(=O)NCc2ccc(NS(C)(=O)=O)cc2)[nH]c2ccc(CCN3C(=O)NC(C)(C)C3=O)cc12 | 5.65 | < 4.5 | –
33 | CN(C)CCc1c(C(=O)NCc2ccc(N)cc2)[nH]c2ccc(CCN3C(=O)NC(C)(C)C3=O)cc12 | 6.19 | 4.52 | –
34 | CN(C)CCc1c(C(=O)NCc2ccc(-c3ccccc3)cc2)[nH]c2ccc(CCN3C(=O)NC(C)(C)C3=O)cc12 | 5.77 | 5 | –
35 | CN(C)CCc1c(C(=O)NCc2ccccc2Cl)[nH]c2ccc(CCN3C(=O)NC(C)(C)C3=O)cc12 | 5.81 | 5.35 | –
36 | CN(C)CCc1c(C(=O)NCc2ccccc2)[nH]c2ccc(CCN3C(=O)NC(C)(C)C3=O)cc12 | 7.09 | 5.2 | Ki [4]: 14.8 µM; Ki [5]: 2.19 µM; pKB [3]: 5.6
37 | CN(C)CCc1c(C(=O)NCc2ccccc2N)[nH]c2ccc(CCN3C(=O)NC(c4ccccc4)(c4ccccc4)C3=O)cc12 | 6.31 | 5.43 | –
38 | CNC(=O)c1[nH]c2ccc(CCN3C(=O)CNC3=O)cc2c1CCN(C)C | 5.94 | – | pKB [3]: < 5
39 | CN(C)CCc1c(C(=O)NCc2ccccc2N)[nH]c2ccc(CCN3C(=O)N(C)C(C)(c4ccccc4)C3=O)cc12 (stereo unspecified) | 6.64 | 4.78 | –
40 | CN(C)CCc1c(C(N)=O)[nH]c2ccc(CCN3C(=O)CNC3=O)cc12 | < 5 | – | pKB [3]: < 5
41 | CN(C)CCc1c(C(=O)NCCc2ccccc2)[nH]c2ccc(CCN3C(=O)NC(C)(C)C3=O)cc12 | 5.57 | – | pKB [3]: 5.35
42 | CCCCNC(=O)c1[nH]c2ccc(CCN3C(=O)NC(C)(C)C3=O)cc2c1CCN(C)C | 5.47 | – | pKB [3]: < 5
43 | CN(C)CCc1c(C(=O)Nc2ccccc2)[nH]c2ccc(CCN3C(=O)NC(C)(C)C3=O)cc12 | 5.21 | 4.86 | –
44 | CN(C)CCc1c(C(=O)NCc2ccccc2O)[nH]c2ccc(CCN3C(=O)NC(C)(C)C3=O)cc12 | 6.61 | 5 | –
45 | CN(C)CCc1c(C(=O)NCc2cccc(N)c2)[nH]c2ccc(CCN3C(=O)NC(C)(C)C3=O)cc12 | 6.52 | 4.58 | –
46 | CN(C)CCc1c(C(=O)NCc2ccccc2)[nH]c2ccc(CCN3C(=O)NC(c4ccccc4)(c4ccccc4)C3=O)cc12 | 6.44 | 5 | –
47 | C#CCNC(=O)c1[nH]c2ccc(CCN3C(=O)NC(C)(C)C3=O)cc2c1CCN(C)C | 5.44 | 4.62 | –
